# Measurements as given in US7351857B2, “Methods of using substituted tetralins and indanes” (Janssen Pharmaceutica N.V., priority 2002, dated 2008).
# Key:
# PPARδ = biological target: T1, PPARδ (Homo sapiens, UniProt Q03181); test: Transfection assay for PPARδ receptors (PPAR-Gal4 / Gal4-luciferase reporter in HEK293 cells); type: cell-based; details: unbracketed values, PPARδ standard FI = 36.1
# T1 sequence (Q03181 171-441 limits assumed): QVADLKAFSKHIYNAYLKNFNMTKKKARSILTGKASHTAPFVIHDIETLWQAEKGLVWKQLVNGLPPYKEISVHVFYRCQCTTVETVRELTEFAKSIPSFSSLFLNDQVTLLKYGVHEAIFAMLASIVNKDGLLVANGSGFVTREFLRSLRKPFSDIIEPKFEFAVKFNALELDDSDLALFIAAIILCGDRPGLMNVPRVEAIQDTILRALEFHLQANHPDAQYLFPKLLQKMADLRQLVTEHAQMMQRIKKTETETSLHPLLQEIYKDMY
# Procedure: HEK293 cells were grown in DMEM/F-12 Media supplemented with 10% FBS and glutamine (GIBCOBRL). The cells were co-transfected with DNA for PPAR-Gal4 receptor and Gal4-Luciferase Reporter using the DMRIE-C Reagent. On the following day, the DNA-containing medium were replaced with 5% Charcoal treated FBS growth medium. After six hours, cells were seeded in 96 well plate and incubated at 37° C. in CO2 incubator overnight. Cells were challenged by test compounds and incubated for 24 hours at 37° C. in 5% CO2 incubator. Luciferase activity was assayed using the Steady-Glo Luciferase Assay Kit from Promega. DMRIE-C Reagent was purchased from GIBCO Cat. No. 10459-014. OPTI-MEM I Reduced Serum Medium was purchased from GIBCO Cat. No. 31985. Steady-Glo Luciferase Assay Kit was obtained from Promega Part# E254B.
# PPARγ = biological target: T2, PPARγ (Homo sapiens, UniProt P37231); test: aP2 assay for PPAR gamma agonists (bDNA aP2 mRNA in preadipocytes); type: cell-based; details: unbracketed values; PPARγ standard FI = 70.3
# T2 construct: Following the challenge of the preadipocytes, cells may be lysed with lysis buffer; endogenous in cells; host or cells: preadipocytes
# T2 sequence (P37231 1-505): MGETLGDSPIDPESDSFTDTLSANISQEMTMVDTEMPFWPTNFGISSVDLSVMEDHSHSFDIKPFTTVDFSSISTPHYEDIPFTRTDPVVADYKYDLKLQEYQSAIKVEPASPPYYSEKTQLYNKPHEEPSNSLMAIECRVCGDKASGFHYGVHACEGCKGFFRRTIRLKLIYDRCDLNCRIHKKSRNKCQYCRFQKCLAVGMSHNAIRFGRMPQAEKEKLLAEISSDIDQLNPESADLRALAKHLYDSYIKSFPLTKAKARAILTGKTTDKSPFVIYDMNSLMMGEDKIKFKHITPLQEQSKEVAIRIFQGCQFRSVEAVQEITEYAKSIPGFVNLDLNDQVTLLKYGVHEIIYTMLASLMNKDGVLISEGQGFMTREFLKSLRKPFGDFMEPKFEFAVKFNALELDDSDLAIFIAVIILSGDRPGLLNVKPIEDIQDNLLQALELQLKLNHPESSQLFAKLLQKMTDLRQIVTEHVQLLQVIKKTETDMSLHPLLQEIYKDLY
# Procedure: The procedure is described in detail in Burris et al., Molecular Endocrinology, 1999, 13:410, which is hereby incorporated by reference in its entirety, and aP2 assay results of agonist intrinsic activity may be presented as fold increase over vehicle in induction of aP2 mRNA production.
# Twenty-four hours after the initial seeding of the 96-well plates by hand (around 20,000/well), the differentiation assay may be initiated. Medium may be removed and replaced with 150 μl of differentiation medium containing vehicle (DMSO) or test compounds. Cells may be returned to incubator for 24 hours culture. At the termination of the challenge, medium may be removed and 100 ul of lysis buffer may be added to initiate the bDNA aP2 mRNA assay. The branched DNA assay may be performed according to the manufacturer's protocol (Bayer Diagnostics; Emeryville, Calif.). Result may be expressed as the fold increase of aP2 mRNA production activated over vehicle controls. EC50's and Emax may be determined by non-linear regression with a sigmoidal fit curve.
# Following the challenge of the preadipocytes, cells may be lysed with lysis buffer (Bayer Diagnostics) containing the aP2 oligonucleotides. After a 15 minute incubation at 53° C. or 30 minutes at 37° C. incubator, 70 ul of the lysis buffer from each well may be added to a corresponding capture well (preincubated with 70 ul of blocking buffer (Bayer Diagnostics)). The capture plate may be incubated overnight at 53° C. in a plate incubator (Bayer Diagnostics). After this incubation, the bDNA and labeled probes may be annealed as directed by the manufacturer. Following a 30-minute incubation with the luminescent alkaline phosphatase substrate, dioxitane, the luminescence may be quantitated in a Dynex MLX microtiter plate luminometer. Oligonucleotide probes designed to anneal to the aP2 mRNA and function in the bDNA mRNA detection system are designed with ProbeDesigner software (Bayer Diagnostics). This software package analyzes a target sequence of interest with a series of algorithms in order to determine which regions of the sequence can perform as locations for capture, label, or spacer probe annealing. The sequences of the oligonucleotides are as follows: […]
# ob/ob mice = test: 11 day oral dosing in female ob/ob mice: serum TG, glucose, insulin; type: in vivo; details: 1.0 mpk, oral once daily 11 days, % change vs vehicle
# Procedure: (Female ob/ob mice (C57 BU6J-Lep^ob, Jackson Labs, Bar Harbor, Me.), 7 weeks of age, were housed two per cage in solid-bottomed shoe box cages. Room temperature was maintained at 68-72° F. and humidity at 50-65%. Room lighting was on a 12-hour light/12-hour dark cycle. Mice were fed a certified NIH Rat and Mouse diet #5K50 (P M I Nutrition Int'l, St. Louis, Mo., via W. F. Fisher and Son, Inc., Bound Brook, N.J.). Food and water were supplied ad libitum.
# The compound was prepared as suspensions in 0.5% hydroxypropyl-methylcellulose (Dow Chemical, Midland, Mich.). The dosing volume was 10 mL/kg of body weight. Female ob/ob diabetic mice (8/group) were orally gavaged once daily for 11 days with either 0.5% methylcellulose in dH2O (vehicle) or PPAR agonist at 0.003, 0.01, 0.03, 0.1, 0.3, 1 mg/kg/day. Body weight was measured in the mornings on Day 1, prior to dosing, and on Day 12 before bleeding. 18 hours after the final dose for each group, the mice were anesthetized with CO2/O2 (70%:30%) and bled by retro-orbital sinus puncture into micro-tubes containing clog activator and then put in ice. The serum samples were prepared by centrifugation. Serum glucose and triglycerides were determined by using COBAS Mira Plus blood chemistry analyzer (Roche Diagnostics, N.J.). Serum insulin and free fatty acids were measured by using ALPCO insulin ELISA kit and Wako NEFA kit, respectively. […]
PPARδ FI (fold induction) (PPARδ),PPARγ FI (fold induction) (PPARγ),SMILES,Δ Plasma Glucose (ob/ob mice) [%],Δ Plasma Insulin (ob/ob mice) [%]
4.2,0.24,"CCN(C(=O)Nc1ccc(OC(F)(F)F)cc1)C1Cc2ccc(SC(C)(C)C(=O)O)cc2C1 (stereo not drawn) [Example 2, 2-{2-[1-Ethyl-3-(4-trifluoromethoxyphenyl)ureido]indan-5-ylsulfanyl}-2-methylpropionic acid]",,
,,"CCN(C(=O)Nc1ccc(OC(F)(F)F)cc1)C1CCc2cc(SC(C)(C)C(=O)O)c(F)cc2C1 (stereo not drawn) [Example 50, 2-{6-[1-Ethyl-3-(4-trifluoromethoxyphenyl)ureido]-3-fluoro-5,6,7,8-tetrahydronaphthalen-2-ylsulfanyl}-2-methylpropionic acid]",−74,−93
1.0,2.9,"CCCCCN(C(=O)Nc1ccc(N(C)C)cc1)C1Cc2ccc(SC(C)(C)C(=O)O)cc2C1 (stereo not drawn) [Example 9, 2-{2-[3-(4-Dimethylaminophenyl)-1-pentylureido]indan-5-ylsulfanyl}-2-methylpropionic acid]",,
2.5,4.0,"CCCCCN(C(=O)Nc1ccc(SC(F)(F)F)cc1)C1Cc2ccc(SC(C)(C)C(=O)O)cc2C1 (stereo not drawn) [Example 5, 2-Methyl-2-{2-[1-pentyl-3-(4-trifluoromethylsulfanylphenyl)ureido]indan-5-ylsulfanyl}propionic acid]",,
5.9,1.9,"CCCCCN(C(=O)Nc1ccc(OC(F)(F)F)cc1)C1Cc2ccc(SC(C)(C)C(=O)O)cc2C1 (stereo not drawn) [Example 8, 2-Methyl-2-{2-[1-pentyl-3-(4-trifluoromethoxyphenyl)ureido]indan-5-ylsulfanyl}-2-methylpropionic acid]",,
1.3,0.3,"CCCCCCN(C(=O)Nc1ccc(OC(F)(F)F)cc1)C1Cc2ccc(SC(C)(C)C(=O)O)cc2C1 (stereo not drawn) [Example 14, 2-Methyl-2-{2-[1-hexyl-3-(4-trifluoromethoxyphenyl)ureido]indan-5-ylsulfanyl}propionic acid]",,
